Reference: patent publication US20190093170A1, “USE OF TRANSLATIONAL PROFILING TO IDENTIFY TARGET MOLECULES FOR THERAPEUTIC TREATMENT” (THE REGENTS OF THE UNIVERSITY OF CALIFORNIA, priority 2013, published 2019)

Test system: PC3 human prostate cancer cells
Experiment: RNA-seq mRNA abundance (part of ribosome profiling experiment);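 note: average poly(A) RNA-seq read density per codon over the coding sequence, excluding 15 initial and 5 final codons, mapped to hg19 transcripts, taken as mRNA abundance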
Format: cell-based
Conditions: for PP242 mRNA: 3-hour treatment with PP242 (2.5 μM) in PC3 cells
Protocol: Cells were subsequently treated with cycloheximide (100 μg ml^−1; Sigma) and detergent lysis was performed in the dish. The lysate was treated with DNase and clarified, and a sample was taken for RNA-seq analysis. Lysates were subjected to ribosome footprinting by nuclease treatment. Ribosome-protected fragments were purified, and deep sequencing libraries were generated from these fragments, as well as from poly(A) mRNA purified from non-nuclease-treated lysates. These libraries were analyzed by sequencing on an Illumina GAII.
Ribosome footprint and RNA-seq sequencing reads were aligned against a library of transcripts from the UCSC Known Genes database GRCh37/hg19. The first 25 nucleotides of each read were aligned using Bowtie and this initial alignment was then extended to encompass the full fragment-derived portion of the sequencing read while excluding the linker sequence. Read density profiles were then constructed for the canonical transcript of each gene, using only reads with 0 or 1 total mismatches between the read sequence and the reference sequence, comprised of the transcript fragment followed by the linker sequence. Footprint reads were assigned to an A site nucleotide at position +15 to +17 of the alignment, based on the total fragment length; mRNA reads were assigned to the first nucleotide of the alignment. The average read density per codon was then computed for the coding sequence of each transcript, excluding the first 15 and last 5 codons, which can display atypical ribosome accumulation.
Average read density was used as a measure of mRNA abundance (RNA-seq reads) and of protein synthesis (ribosome profiling reads). For most analyses, genes were filtered to require at least 256 reads in the relevant RNA-seq samples. Translational efficiency was computed as the ratio of ribosome footprint read density to RNA-seq read density, scaled to normalize the translational efficiency of the median gene to 1.0 after excluding regulated genes (log 2 fold-change+1.5 after normalizing for the all-gene median). Changes in protein synthesis, mRNA abundance and translational efficiency were similarly computed as the ratio of read densities between different samples, normalized to give the median gene a ratio of 1.0. This normalization corrects for differences in the absolute number of sequencing reads obtained for different libraries.

CC(C)n1nc(-c2cc3cc(O)ccc3[nH]2)c2c(N)ncnc21 [PP242]
PP242 mRNA (gene ACD): 0.20
mRNA (gene ACTG1): 0.28
mRNA (gene AGRN): 0.50
mRNA (gene ALKBH7): 0.51
mRNA (gene AP2A1): 0.42
mRNA (gene ARD1A): 0.03
mRNA (gene ATP5G2): 0.17
PP242 mRNA (gene C17orf28): 0.21
mRNA (gene C21orf66): −0.31
PP242 mRNA (gene CCNA1): −0.33
mRNA (gene CCNI): 0.24
mRNA (gene CD44): 0.43
mRNA (gene CIRBP): 0.54
mRNA (gene CLPTM1): 0.41
mRNA (gene COL6A2): 0.57
mRNA (gene CRTAP): 0.33
PP242 mRNA (gene DDX51): 0.17
PP242 mRNA (gene DGCR2): 0.05
mRNA (gene ECSIT): 0.26
PP242 mRNA (gene EEF1A1): 0.29
mRNA (gene EEF1A2): 0.40
mRNA (gene EEF1D): 0.35
mRNA (gene EEF1G): 0.15
mRNA (gene EEF2): 0.76
mRNA (gene EIF3H): 0.09
mRNA (gene EIF3L): 0.21
mRNA (gene EIF4B): 0.61
mRNA (gene EVPL): 0.38
mRNA (gene FAM83H): 0.33
mRNA (gene FAM128B): 0.43
mRNA (gene FASN): 0.30
mRNA (gene GLTSCR2): 0.70
mRNA (gene GNB2L1): 0.27
PP242 mRNA (gene GTPBP3): 0.15
mRNA (gene HNRNPA1): 0.27
mRNA (gene HSPA8): −0.40
mRNA (gene IMPDH2): 0.21
mRNA (gene LAMA5): 0.40
mRNA (gene LMF2): 0.62
PP242 mRNA (gene MAPK6): 0.10
PP242 mRNA (gene MAPKAPK2): −0.22
mRNA (gene MTA1): 0.21
mRNA (gene NCLN): 0.29
PP242 mRNA (gene NFATC21P): 0.08
PP242 mRNA (gene NR2F1): 0.87
mRNA (gene PABPC1): 0.16
mRNA (gene PABPC4): 0.40
mRNA (gene PACS1): 0.45
mRNA (gene PFDN5): 0.04
mRNA (gene PGLS): 0.21
mRNA (gene PGM1): 0.23
mRNA (gene PNKP): 0.33
PP242 mRNA (gene PRKD3): −0.46
mRNA (gene PTGES2): 0.17
mRNA (gene RABGGTB): 0.20
PP242 mRNA (gene RBPJ): 0.17
mRNA (gene RPL3): 0.22
mRNA (gene RPL4): 0.10
mRNA (gene RPL7): 0.01
mRNA (gene RPL7A): 0.15
mRNA (gene RPL9): −0.08
mRNA (gene RPL10): 0.25
mRNA (gene RPL10A): 0.14
mRNA (gene RPL11): 0.14
mRNA (gene RPL12): 0.12
mRNA (gene RPL13): 0.26
mRNA (gene RPL13A): 0.30
mRNA (gene RPL15): 0.19
mRNA (gene RPL18A): 0.23
mRNA (gene RPL19): 0.11
mRNA (gene RPL21): −0.04
mRNA (gene RPL22): 0.00
mRNA (gene RPL24): 0.00
mRNA (gene RPL26): 0.02
mRNA (gene RPL27): −0.13
mRNA (gene RPL27A): 0.07
mRNA (gene RPL28): 0.22
PP242 mRNA (gene RPL28): 0.55
mRNA (gene RPL31): 0.05
mRNA (gene RPL32): 0.11
mRNA (gene RPL34): 0.04
mRNA (gene RPL36A): −0.01
mRNA (gene RPL37A): 0.01
mRNA (gene RPL39): −0.15
PP242 mRNA (gene RPL39): −0.42
mRNA (gene RPL41): −0.01
mRNA (gene RPLP0): 0.12
mRNA (gene RPLP1): 0.12
mRNA (gene RPLP2): 0.14
mRNA (gene RPS2): 0.20
mRNA (gene RPS3): 0.24
mRNA (gene RPS3A): −0.06
mRNA (gene RPS4X): 0.12
mRNA (gene RPS5): 0.23
mRNA (gene RPS7): −0.04
mRNA (gene RPS9): 0.34
mRNA (gene RPS12): 0.04
mRNA (gene RPS13): −0.08
mRNA (gene RPS14): 0.16
mRNA (gene RPS15): 0.21
mRNA (gene RPS15A): 0.07
mRNA (gene RPS19): 0.23
mRNA (gene RPS20): −0.01
PP242 mRNA (gene RPS20): −0.10
mRNA (gene RPS21): 0.09
mRNA (gene RPS25): −0.04
mRNA (gene RPS27): 0.07
PP242 mRNA (gene RPS27): 0.06
mRNA (gene RPS27A): −0.04
mRNA (gene RPS28): 0.28
PP242 mRNA (gene SDCCAG10): −0.37
mRNA (gene SLC19A1): 0.10
mRNA (gene TKT): 0.33
mRNA (gene TPT1): 0.01
mRNA (gene TSC2): 0.21
mRNA (gene UBA52): 0.18
PP242 mRNA (gene UBTD2): 0.25
PP242 mRNA (gene UCHL5): −0.51
PP242 mRNA (gene VHL): 0.43
mRNA (gene VIM): 0.67
mRNA (gene YB1): 0.24
